Assay results taken from US20200331925A1, “HETEROCYCLIC COMPOUNDS FOR THE TREATMENT OF ABNORMAL CELLULAR PROLIFERATION” (G1 Therapeutics, Inc., priority 2018, published 2020).

Legend:
Format in all cases: biochemical
[1] = target: CDK1/Cyclin B1 (Homo sapiens, UniProt P06493); experiment: CDK1/Cyclin B1 kinase assay (Nanosyn, Caliper microfluidic); settings: 12-point dose-response, ATP at Km (40 μM), 3 hr
Summary of the method: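 Mobility-shift microfluidic kinase assay, 12-point dose-response in singlicate. Conditions: 0.08 nM enzyme, 40 μM ATP (Km), 1 μM peptide substrate, 3 hr incubation; staurosporine as reference.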

[2] = target: CDK5/p35 (Homo sapiens, UniProt Q00535); experiment: CDK5/p35 kinase assay (Nanosyn, Caliper microfluidic); settings: 12-point dose-response, ATP at Km (20 μM), 3 hr
CDK5/p35, sequence (Q00535 whole entry): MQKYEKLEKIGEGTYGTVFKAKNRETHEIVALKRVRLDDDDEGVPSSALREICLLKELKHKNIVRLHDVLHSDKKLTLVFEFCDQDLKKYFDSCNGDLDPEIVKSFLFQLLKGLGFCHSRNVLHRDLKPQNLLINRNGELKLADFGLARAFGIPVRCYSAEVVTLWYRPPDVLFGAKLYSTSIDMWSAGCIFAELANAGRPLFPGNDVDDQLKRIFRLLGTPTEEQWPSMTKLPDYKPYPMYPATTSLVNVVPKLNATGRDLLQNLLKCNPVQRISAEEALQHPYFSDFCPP
CDK5/p35, sequence (Q15078 whole entry partner): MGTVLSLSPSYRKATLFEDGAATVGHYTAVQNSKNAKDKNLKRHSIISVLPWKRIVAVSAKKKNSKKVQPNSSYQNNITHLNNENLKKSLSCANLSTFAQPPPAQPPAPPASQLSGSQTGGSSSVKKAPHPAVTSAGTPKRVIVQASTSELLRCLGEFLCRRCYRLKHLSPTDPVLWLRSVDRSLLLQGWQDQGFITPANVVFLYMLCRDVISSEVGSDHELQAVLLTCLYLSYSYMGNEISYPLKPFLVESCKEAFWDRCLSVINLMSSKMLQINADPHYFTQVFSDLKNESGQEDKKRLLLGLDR
Summary of the method: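 Microfluidic mobility-shift kinase assay with 0.05 nM CDK5/p35, 20 μM ATP (Km) and 1 μM peptide substrate, 3 hr incubation. Compounds tested as 12-point dose–response in singlicate; staurosporine as reference.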

[3] = target: CDK7/Cyclin H (Homo sapiens, UniProt P50613); experiment: CDK7/Cyclin H kinase assay (Nanosyn, Caliper microfluidic); settings: 12-point dose-response, ATP at Km (50 μM), 17 hr
CDK7/Cyclin H, sequence (P50613 whole entry): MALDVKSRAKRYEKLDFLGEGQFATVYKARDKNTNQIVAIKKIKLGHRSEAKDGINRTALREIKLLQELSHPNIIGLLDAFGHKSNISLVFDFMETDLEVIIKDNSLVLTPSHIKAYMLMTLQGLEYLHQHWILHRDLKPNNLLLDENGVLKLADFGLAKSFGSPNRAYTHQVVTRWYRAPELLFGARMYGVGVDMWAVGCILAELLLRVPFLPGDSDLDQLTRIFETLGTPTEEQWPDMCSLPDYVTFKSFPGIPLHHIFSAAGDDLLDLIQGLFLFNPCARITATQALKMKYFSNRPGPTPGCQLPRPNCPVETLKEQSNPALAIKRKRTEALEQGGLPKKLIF
CDK7/Cyclin H, sequence (P51946 whole entry partner): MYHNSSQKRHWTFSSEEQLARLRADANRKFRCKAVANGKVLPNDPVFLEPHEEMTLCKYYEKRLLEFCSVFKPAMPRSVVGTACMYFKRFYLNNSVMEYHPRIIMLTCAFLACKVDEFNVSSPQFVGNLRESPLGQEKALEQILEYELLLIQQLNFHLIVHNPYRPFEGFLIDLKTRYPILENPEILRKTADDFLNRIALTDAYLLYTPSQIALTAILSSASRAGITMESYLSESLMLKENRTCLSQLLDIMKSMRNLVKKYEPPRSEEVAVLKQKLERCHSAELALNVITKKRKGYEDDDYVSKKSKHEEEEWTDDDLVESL
CDK7/Cyclin H, sequence (P51948 whole entry partner): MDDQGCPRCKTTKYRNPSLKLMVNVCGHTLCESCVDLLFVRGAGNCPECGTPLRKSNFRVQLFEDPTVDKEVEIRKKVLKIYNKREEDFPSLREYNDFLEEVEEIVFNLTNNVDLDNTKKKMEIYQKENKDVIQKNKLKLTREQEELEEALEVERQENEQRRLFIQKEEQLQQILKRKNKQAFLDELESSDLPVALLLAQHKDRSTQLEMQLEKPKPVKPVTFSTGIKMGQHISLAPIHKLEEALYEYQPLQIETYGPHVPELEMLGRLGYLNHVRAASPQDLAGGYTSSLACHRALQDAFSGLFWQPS
Summary of the method: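 Caliper microfluidic mobility-shift assay with 10 nM CDK7/Cyclin H, 50 μM ATP (Km) and 1 μM peptide substrate, incubated 17 hr. Compounds run in 12-point dose-response, singlicate.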

[4] = target: CDK4/Cyclin D1 (Homo sapiens, UniProt P11802); experiment: CDK4/Cyclin D1 kinase assay (Nanosyn, Caliper microfluidic); settings: 12-point dose-response, ATP at Km (200 μM), 3 hr; Table 4
CDK4/Cyclin D1, sequence (P11802 whole entry): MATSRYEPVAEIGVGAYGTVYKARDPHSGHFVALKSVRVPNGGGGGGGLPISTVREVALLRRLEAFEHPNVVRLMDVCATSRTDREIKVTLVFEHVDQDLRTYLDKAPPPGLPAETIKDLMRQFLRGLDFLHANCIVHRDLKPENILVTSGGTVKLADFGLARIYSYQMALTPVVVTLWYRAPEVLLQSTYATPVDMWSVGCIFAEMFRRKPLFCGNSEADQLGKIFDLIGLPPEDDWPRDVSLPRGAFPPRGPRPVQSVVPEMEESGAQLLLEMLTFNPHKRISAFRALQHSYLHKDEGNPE
CDK4/Cyclin D1, sequence (P24385 whole entry partner): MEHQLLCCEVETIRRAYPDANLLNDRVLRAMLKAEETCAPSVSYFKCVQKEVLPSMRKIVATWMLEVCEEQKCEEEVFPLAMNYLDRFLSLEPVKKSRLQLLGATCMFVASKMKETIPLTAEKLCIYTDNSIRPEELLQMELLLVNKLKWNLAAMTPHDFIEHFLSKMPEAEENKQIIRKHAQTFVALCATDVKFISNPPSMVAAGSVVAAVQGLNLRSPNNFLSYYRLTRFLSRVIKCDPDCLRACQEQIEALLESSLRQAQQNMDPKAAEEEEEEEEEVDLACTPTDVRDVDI
Summary of the method: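 Caliper microfluidic mobility-shift read-out, 12-point dose-response in singlicate. 1 nM enzyme, 200 μM ATP (Km), 1 μM peptide substrate, 3 hr incubation; staurosporine as reference.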

[5] = target: CDK5/p25 (Homo sapiens, UniProt Q00535); experiment: CDK5/p25 kinase assay (Nanosyn, Caliper microfluidic); settings: 12-point dose-response, ATP at Km (20 μM), 3 hr
CDK5/p25, sequence (Q00535 whole entry): as the sequence (Q00535 whole entry) above
CDK5/p25, sequence (Q15078 99-307 partner limits assumed): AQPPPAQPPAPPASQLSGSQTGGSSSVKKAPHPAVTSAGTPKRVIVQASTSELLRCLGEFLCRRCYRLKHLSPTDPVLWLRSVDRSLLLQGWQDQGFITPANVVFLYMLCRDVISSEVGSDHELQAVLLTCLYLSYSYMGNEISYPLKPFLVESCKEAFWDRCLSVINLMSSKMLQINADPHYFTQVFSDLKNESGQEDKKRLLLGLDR
Summary of the method: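 Caliper microfluidic mobility-shift assay, 12-point dose-response in singlicate. CDK5/p25 at 0.1 nM with 20 μM ATP (Km) and 1 μM peptide substrate. Incubation 3 hr.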

[6] = target: CDK6/Cyclin D3 (Homo sapiens, UniProt Q00534); experiment: CDK6/Cyclin D3 kinase assay (Nanosyn, Caliper microfluidic); settings: 12-point dose-response, ATP at Km (300 μM), 3 hr
CDK6/Cyclin D3, sequence (Q00534 whole entry): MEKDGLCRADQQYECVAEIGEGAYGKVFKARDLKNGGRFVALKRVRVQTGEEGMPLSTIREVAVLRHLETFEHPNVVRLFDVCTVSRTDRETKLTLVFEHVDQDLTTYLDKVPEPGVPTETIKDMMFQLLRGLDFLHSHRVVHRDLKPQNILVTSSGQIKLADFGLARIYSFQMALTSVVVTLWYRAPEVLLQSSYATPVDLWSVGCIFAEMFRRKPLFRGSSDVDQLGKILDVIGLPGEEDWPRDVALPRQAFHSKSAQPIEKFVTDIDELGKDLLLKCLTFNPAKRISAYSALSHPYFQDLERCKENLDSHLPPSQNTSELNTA
CDK6/Cyclin D3, sequence (P30281 whole entry partner): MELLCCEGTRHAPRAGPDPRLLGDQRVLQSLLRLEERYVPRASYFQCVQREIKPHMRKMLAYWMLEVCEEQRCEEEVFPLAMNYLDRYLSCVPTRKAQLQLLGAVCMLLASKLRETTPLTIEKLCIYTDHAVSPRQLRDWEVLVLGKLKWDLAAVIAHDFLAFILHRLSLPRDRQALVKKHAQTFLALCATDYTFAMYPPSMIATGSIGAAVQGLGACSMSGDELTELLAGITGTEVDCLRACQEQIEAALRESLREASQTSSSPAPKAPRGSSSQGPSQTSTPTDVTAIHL
Summary of the method: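 Caliper microfluidic assay with 2 nM enzyme, 300 μM ATP and 1 μM phosphoacceptor peptide, incubated for 3 hr. Compounds were run as 12-point dose-response curves in singlicate.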

[7] = target: CDK3/Cyclin E (Homo sapiens, UniProt Q00526); experiment: CDK3/Cyclin E kinase assay (Nanosyn, Caliper microfluidic); settings: 12-point dose-response, ATP at Km (400 μM), 3 hr
Summary of the method: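 Caliper microfluidic mobility-shift read-out with 1 nM enzyme, 400 μM ATP (stated as Km) and 1 μM peptide substrate, 3 hr incubation. Compounds run as 12-point dose-response in singlicate.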

[8] = target: CDK9/Cyclin T (Homo sapiens, UniProt P50750); experiment: CDK9/Cyclin T kinase assay (Nanosyn, Caliper microfluidic); settings: 12-point dose-response, ATP at Km (10 μM), 17 hr; Table 5
CDK9/Cyclin T, sequence (P50750 whole entry): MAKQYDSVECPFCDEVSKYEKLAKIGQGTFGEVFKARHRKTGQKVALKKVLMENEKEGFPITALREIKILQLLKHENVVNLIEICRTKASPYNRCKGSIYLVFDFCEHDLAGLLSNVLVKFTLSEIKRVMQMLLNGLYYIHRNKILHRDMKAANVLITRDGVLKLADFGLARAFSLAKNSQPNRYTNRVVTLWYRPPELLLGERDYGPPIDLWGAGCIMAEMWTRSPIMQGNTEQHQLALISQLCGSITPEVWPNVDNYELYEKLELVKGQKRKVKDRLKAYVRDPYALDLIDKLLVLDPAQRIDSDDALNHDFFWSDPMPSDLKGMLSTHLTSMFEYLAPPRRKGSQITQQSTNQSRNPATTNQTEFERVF
CDK9/Cyclin T, sequence (O60563 whole entry partner): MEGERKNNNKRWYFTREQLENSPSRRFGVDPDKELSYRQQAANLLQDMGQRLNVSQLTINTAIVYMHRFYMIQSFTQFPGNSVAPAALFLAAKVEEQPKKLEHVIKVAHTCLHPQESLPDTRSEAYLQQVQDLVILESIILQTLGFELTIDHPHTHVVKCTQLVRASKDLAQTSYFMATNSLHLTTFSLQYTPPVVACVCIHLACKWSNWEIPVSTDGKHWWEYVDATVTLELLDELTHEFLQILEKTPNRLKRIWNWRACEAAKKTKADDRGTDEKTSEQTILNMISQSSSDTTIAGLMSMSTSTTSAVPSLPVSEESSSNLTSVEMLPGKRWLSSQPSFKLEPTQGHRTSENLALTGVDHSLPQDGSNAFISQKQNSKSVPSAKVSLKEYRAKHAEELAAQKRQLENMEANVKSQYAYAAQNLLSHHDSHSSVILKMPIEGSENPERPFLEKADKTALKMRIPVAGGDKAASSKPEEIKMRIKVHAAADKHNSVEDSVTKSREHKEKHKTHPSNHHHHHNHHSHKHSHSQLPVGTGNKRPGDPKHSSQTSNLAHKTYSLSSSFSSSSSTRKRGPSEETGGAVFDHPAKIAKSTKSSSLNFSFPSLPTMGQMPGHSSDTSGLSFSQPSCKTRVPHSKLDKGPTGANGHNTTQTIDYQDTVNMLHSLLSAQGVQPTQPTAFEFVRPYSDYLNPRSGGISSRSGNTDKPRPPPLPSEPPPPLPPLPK
Summary of the method: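 Caliper microfluidic mobility-shift read-out, 12-point dose-response in singlicate at ATP Km with 1 μM peptide substrate; staurosporine reference.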

[9] = target: CDK2/Cyclin E (Homo sapiens, UniProt P24941); experiment: CDK2/Cyclin E kinase assay (Nanosyn, Caliper microfluidic); settings: 12-point dose-response, ATP at Km (100 μM), 3 hr
Summary of the method: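 Caliper microfluidic mobility-shift readout of phosphorylation of 1 μM substrate peptide by 0.15 nM enzyme at 100 μM ATP (stated as Km), 3 hr incubation. 12-point dose-response in singlicate, staurosporine as reference.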

[10] = target: CDK2/Cyclin A (Homo sapiens, UniProt P24941); experiment: CDK2/Cyclin A kinase assay (Nanosyn, Caliper microfluidic); settings: 12-point dose-response, ATP at Km (50 μM), 3 hr
Summary of the method: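 Caliper microfluidic mobility-shift read-out; 0.1 nM enzyme, 50 μM ATP (Km), 1 μM peptide substrate, 3 hr incubation. 12-point dose-response in singlicate; staurosporine as reference.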

SMILES: C1=NCC2(CCCCC2)n2c1cc1cnc(N[C@@H]3CCCNC3)nc12 [Compound 51, (R)-N-(piperidin-3-yl)-8′H-spiro[cyclohexane-1,9′-pyrazino[1′,2′:1,5]pyrrolo[2,3-d]pyrimidin]-2′-amine]
- IC50 [1]: 1.6 µM
- IC50 [2]: 1.5 µM
- IC50 [3]: 0.23 µM
- IC50 [4]: 0.29 µM
- IC50 [5]: 1.5 µM
- IC50 [6]: 1.1 µM
- IC50 [7]: 0.61 µM
- IC50 [8]: 0.2 µM
- IC50 [9]: 0.49 µM
- IC50 [10]: 0.9 µM

SMILES: O=C1NCC2(CCCCC2)n2c1cc1cnc(NC(=O)[C@H]3CCNC3)nc12 [Compound 33, (S)-N-(6′-oxo-7′,8′-dihydro-6′H-spiro[cyclohexane-1,9′-pyrazino[1′,2′:1,5]pyrrolo[2,3-d]pyrimidin]-2′-yl)pyrrolidine-3-carboxamide]
- IC50 [1]: 16 µM
- IC50 [2]: 34 µM
- IC50 [3]: 20 µM
- IC50 [4]: 3.3 µM
- IC50 [5]: 34 µM
- IC50 [6]: 12 µM
- IC50 [7]: 23 µM
- IC50 [8]: 0.035 µM
- IC50 [9]: 26 µM
- IC50 [10]: 6.1 µM

SMILES: O=C1NCC2(CCCCC2)n2c1cc1cnc(NC(=O)[C@H]3CNCCN3)nc12 [Compound 36, (R)-N-(6′-oxo-7′,8′-dihydro-6′H-spiro[cyclohexane-1,9′-pyrazino[1′,2′:1,5]pyrrolo[2,3-d]pyrimidin]-2′-yl)piperazine-2-carboxamide]
- IC50 [1]: > 100 µM
- IC50 [2]: > 100 µM
- IC50 [3]: > 100 µM
- IC50 [4]: 9.4 µM
- IC50 [5]: > 100 µM
- IC50 [6]: 82 µM
- IC50 [7]: > 100 µM
- IC50 [8]: 0.24 µM
- IC50 [9]: > 100 µM
- IC50 [10]: 88 µM
